Measured values as given in patent US20110118283A1, “Substituted Pyrrolidine-2-Carboxamides” (priority 2009, published 2011).

The compounds below were run against MDM2 (Homo sapiens, UniProt Q00987) (assay: HTRF assay of inhibition of the p53-MDM2 interaction). Conditions: GST-MDM2 / biotinylated p53 peptide, bsa 0.02%.
Assay type: binding
Procedure: The ability of the compounds to inhibit the interaction between p53 and MDM2 proteins was measured by an HTRF (homogeneous time-resolved fluorescence) assay in which recombinant GST-tagged MDM2 binds to a peptide that resembles the MDM2-interacting region of p53 (Lane et al.). Binding of GST-MDM2 protein and p53-peptide (biotinylated on its N-terminal end) is registered by the FRET (fluorescence resonance energy transfer) between Europium (Eu)-labeled anti-GST antibody and streptavidin-conjugated Allophycocyanin (APC).
[…] Add 10 uL diluted compounds (1:5 dilution in reaction buffer) to each well, mix by shaking. Add 20 uL biotinylated p53 peptide (180 nM working solution) in reaction buffer to each well and mix on shaker. Incubate at 37° C. for 1 h. Add 20 uL streptavidin-APC and Eu-anti-GST antibody mixture (6 nM Eu-anti-GST and 60 nM streptavidin-APC working solution) in TBS buffer with 0.2% BSA, shake at room temperature for 30 minutes and read using a TRF-capable plate reader at 665 and 615 nm (Victor 5, Perkin ElmerWallac). If not specified, the reagents were purchased from Sigma Chemical Co.

Chain of MDM2 (Q00987 whole entry, species assumed): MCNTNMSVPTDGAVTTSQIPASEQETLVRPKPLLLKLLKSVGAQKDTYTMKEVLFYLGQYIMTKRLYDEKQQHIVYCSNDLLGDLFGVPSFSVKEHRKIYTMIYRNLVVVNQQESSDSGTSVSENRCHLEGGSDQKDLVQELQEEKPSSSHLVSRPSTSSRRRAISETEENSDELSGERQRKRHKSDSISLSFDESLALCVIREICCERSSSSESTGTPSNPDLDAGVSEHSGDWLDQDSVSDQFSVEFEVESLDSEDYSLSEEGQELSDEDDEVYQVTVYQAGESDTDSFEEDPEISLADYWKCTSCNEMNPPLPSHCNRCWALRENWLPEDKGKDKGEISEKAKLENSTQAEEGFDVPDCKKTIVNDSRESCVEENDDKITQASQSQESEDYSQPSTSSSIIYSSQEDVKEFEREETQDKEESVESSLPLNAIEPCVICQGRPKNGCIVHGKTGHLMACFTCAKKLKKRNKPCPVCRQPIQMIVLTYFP

Compound | IC50
CC(C)(C)C[C@@H]1N[C@@H](C(=O)NCC[C@H](O)CO)[C@H](c2cccc(Cl)c2)[C@@]1(C#N)c1cc(Br)cs1 (mixture of isomers) [Example 7, rac-(2R,3R,4R,5S)-4-(4-bromo-thiophen-2-yl)-3-(3-chloro-phenyl)-4-cyano-5-(2,2-dimethyl-propyl)-pyrrolidine-2-carboxylic acid ((S)-3,4-dihydroxy-butyl)-amide] | 5860 nM
CC(C)(C)C[C@@H]1N[C@@H](C(=O)NCC[C@H](O)CO)[C@H](c2cccc(Cl)c2F)[C@@]1(C#N)c1ncc(Cl)cc1F (mixture of isomers) [Example 25, rac-(2R,3S,4S,5S)-3-(3-chloro-2-fluoro-phenyl)-4-(5-chloro-3-fluoro-pyridin-2-yl)-4-cyano-5-(2,2-dimethyl-propyl)-pyrrolidine-2-carboxylic acid ((S)-3,4-dihydroxy-butyl)-amide] | 1230 nM
CC(C)(C)C[C@@H]1N[C@@H](C(=O)NCC[C@H](O)CO)[C@H](c2cccc(Cl)c2)[C@@]1(C#N)c1cccnc1 (mixture of isomers) [Example 39, rac-(2R,3R,4R,5S)-3-(3-chloro-phenyl)-4-cyano-5-(2,2-dimethyl-propyl)-4-pyridin-3-yl-pyrrolidine-2-carboxylic acid ((S)-3,4-dihydroxy-butyl)-amide] | 1970 nM

Stronger by IC50, values ahead:

IC50 | Compound
201 nM | COC(=O)c1ccc(NC(=O)[C@@H]2N[C@@H](CC(C)(C)C)[C@](C#N)(c3ccc(Br)cn3)[C@H]2c2cccc(Cl)c2F)cc1 (racemic) [Example 34, rac-4-{[(2R,3S,4S,5S)-4-(5-bromo-pyridin-2-yl)-3-(3-chloro-2-fluoro-phenyl)-4-cyano-5-(2,2-dimethyl-propyl)-pyrrolidine-2-carbonyl]-amino}-benzoic acid methyl ester]
61 nM | CC(C)(C)C[C@@H]1N[C@@H](C(=O)NCC[C@H](O)CO)[C@H](c2cccc(Cl)c2)[C@@]1(C#N)c1ccc(Cl)nc1 (mixture of isomers) [Example 44, rac-(2R,3R,4R,5S)-3-(3-chloro-phenyl)-4-(6-chloro-pyridin-3-yl)-4-cyano-5-(2,2-dimethyl-propyl)-pyrrolidine-2-carboxylic acid ((S)-3,4-dihydroxy-butyl)-amide]
